From US20060286140A1, “Implants with attached silylated therapeutic agents” (priority 2003, published 2006)

Columns and labels:
S. aureus (ATCC 25923) = experiment: Disc diffusion assay; format: cell-based; conditions: 1 μg/mL solution, 20 μL on six mm filter disk, overnight
Experimental: Disc Diffusion Assay. Six mm sterile filter disks can be directly placed onto a full-grown lawn of S. aureus (ATCC 25923) culture, and known volumes (20 μL) and dilutions of the eluted antibiotic can be pipetted onto the disc. After incubation overnight, the area of the resultant adjacent clear zone that is devoid of bacterial growth can be measured and compared with the area cleared by a standard series of known doses of rifampin. A 1 μg/mL solution of rifampin should give a clear zone of 4-5 cm. The lower limit of sensitivity of this assay is expected to be in the 10 ng/mL range.

S. aureus = conditions: in vitro, most strains including S. aureus; cited from earlier work
E. faecalis = conditions: in vitro; cited from earlier work
E. faecium = conditions: in vitro; cited from earlier work

Row | SMILES | clear zone (S. aureus (ATCC 25923)) | MIC90 (S. aureus) | activity relative to linezolid (E. faecalis) [fold] | activity relative to quinupristin-dalfopristin (E. faecalis) [fold] | activity relative to linezolid (E. faecium) [fold] | activity relative to quinupristin-dalfopristin (E. faecium) [fold]
1 | CO[C@H]1/C=C/O[C@@]2(C)Oc3c(C)c(O)c4c(O)c(c(/C=N/N5CCN(C)CC5)c(O)c4c3C2=O)NC(=O)/C(C)=C\C=C\[C@H](C)[C@H](O)[C@@H](C)[C@@H](O)[C@@H](C)[C@H](OC(C)=O)[C@@H]1C (relative stereo) [rifampin, (2S*,12Z,14E,16R*,17R*,18S*,19S*,20S*,21R*,22S*,23R*,24E)-5,6,9,17,19,21-hexahydroxy-23-methoxy-2,4,12,16,18,20,22-heptamethyl-8-[N-(4-methyl-1-piperazinyl)formimidoyl]-2,7-(epoxypentadeca[1,11,13]trienimino)naphtha[2,1-b]furan-1,11-deone 21-acetate] | 4-5 cm |  |  |  |  | 
2 | CN(C)c1cc(NC(=O)CNC(C)(C)C)c(O)c2c1C[C@H]1C[C@H]3[C@H](N(C)C)C(O)=C(C(N)=O)C(=O)[C@@]3(O)C(O)=C1C2=O [tigecyclin] |  | less than 0.25 mg/mL | ~8 | 32 | ~8 | 32
